In ChEMBL document CHEMBL4138146, “A Schmidt rearrangement-mediated synthesis of novel tetrahydro-benzo[1,4]diazepin-5-ones as potential anticancer and antiprotozoal agents” (Eur J Med Chem, 2017):

Assays:
Type in all cases: functional
TK-10 = assay: Growth inhibition of human TK10 cells assessed as cell growth at 10^-6 M incubated for 48 hrs by sulforhodamine B assay relative to control; details: TK-10, 48 h, read-out: Activity
NCI-H322M = assay: Growth inhibition of human NCI-H322M cells assessed as cell growth at 10^-6 M incubated for 48 hrs by sulforhodamine B assay relative to control; details: read-out: Activity
Hs-578T = assay: Growth inhibition of human Hs 578T cells assessed as cell growth at 10^-5 M incubated for 48 hrs by sulforhodamine B assay relative to control; details: read-out: Activity
HOP-92 = assay: Growth inhibition of human HOP92 cells assessed as cell growth at 10^-7 M incubated for 48 hrs by sulforhodamine B assay relative to control; details: HOP-92, 48 h, read-out: Activity

CCCCOc1nc2ccccc2cc1C1CNC(=O)c2ccccc2N1 (centres undefined)
growth at 1 µM (TK-10): 92% | growth at 1 µM (NCI-H322M): 86% | growth at 10 µM (Hs-578T): 28% | growth at 0.1 µM (HOP-92): 80%
